Measured values published in the supplement of paper PMC10307832.

What was measured:
Test in all cases: relative viability (nuclei count vs DMSO), 5 days (fraction); higher = more cells survive
VX-11e + Olaparib = compound: CC1=CN=C(N=C1C2=CNC(=C2)C(=O)N[C@H](CO)C3=CC(=CC=C3)Cl)NC4=C(C=C(C=C4)F)Cl [VX-11e] + O=C(c1cc(Cc2n[nH]c(=O)c3ccccc23)ccc1F)N1CCN(C(=O)C2CC2)CC1 [Olaparib] (partner 8 µM)
Summary of the method: (§1)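 For relative viability, nuclei counts in treated wells were divided by those in vehicle wells. Lung cancer cell lines had been pin-tool dosed in 1536-well plates the day after seeding and cultured for 5 days, then fixed and stained in one step (final 0.05% Triton X-100, 1% formaldehyde, 1 ug/ml Hoechst) and imaged at 4×. Doses were one drug alone or a fixed anchor-drug dose plus five library-drug doses (not always all listed) in √10 steps, and values are duplicate-plate medians.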

VX-11e + Linsitinib = compound: CC1=CN=C(N=C1C2=CNC(=C2)C(=O)N[C@H](CO)C3=CC(=CC=C3)Cl)NC4=C(C=C(C=C4)F)Cl [VX-11e] + C[C@]1(O)C[C@@H](c2nc(-c3ccc4ccc(-c5ccccc5)nc4c3)c3c(N)nccn32)C1 [Linsitinib] (partner 1 µM)
Summary of the method: as §1

VX-11e + Vorinostat = compound: CC1=CN=C(N=C1C2=CNC(=C2)C(=O)N[C@H](CO)C3=CC(=CC=C3)Cl)NC4=C(C=C(C=C4)F)Cl [VX-11e] + O=C(CCCCCCC(=O)Nc1ccccc1)NO [Vorinostat] (partner 1 µM)
Summary of the method: as §1

VX-11e + Pemetrexed = compound: CC1=CN=C(N=C1C2=CNC(=C2)C(=O)N[C@H](CO)C3=CC(=CC=C3)Cl)NC4=C(C=C(C=C4)F)Cl [VX-11e] + Nc1nc2[nH]cc(CCc3ccc(C(=O)N[C@@H](CCC(=O)O)C(=O)O)cc3)c2c(=O)[nH]1 [Pemetrexed] (partner 0.2 µM)
Summary of the method: as §1

Cell Line | relative viability (VX-11e + Olaparib; first compound 0.04 µM) | relative viability (VX-11e + Olaparib; first compound 0.1265 µM) | relative viability (VX-11e + Olaparib; first compound 0.4 µM) | relative viability (VX-11e + Olaparib; first compound 1.265 µM) | relative viability (VX-11e + Olaparib; first compound 4 µM) | relative viability (VX-11e + Linsitinib; first compound 0.04 µM) | relative viability (VX-11e + Linsitinib; first compound 0.1265 µM) | relative viability (VX-11e + Linsitinib; first compound 0.4 µM) | relative viability (VX-11e + Linsitinib; first compound 1.265 µM) | relative viability (VX-11e + Linsitinib; first compound 4 µM) | relative viability (VX-11e + Vorinostat; first compound 0.04 µM) | relative viability (VX-11e + Vorinostat; first compound 0.1265 µM) | relative viability (VX-11e + Vorinostat; first compound 0.4 µM) | relative viability (VX-11e + Vorinostat; first compound 1.265 µM) | relative viability (VX-11e + Vorinostat; first compound 4 µM) | relative viability (VX-11e + Pemetrexed; first compound 0.04 µM) | relative viability (VX-11e + Pemetrexed; first compound 0.1265 µM) | relative viability (VX-11e + Pemetrexed; first compound 0.4 µM) | relative viability (VX-11e + Pemetrexed; first compound 1.265 µM) | relative viability (VX-11e + Pemetrexed; first compound 4 µM)
NCI-H23 | 0.292 | 0.366 | 0.359 | 0.324 | 0.186 | 0.48 | 0.52 | 0.37 | 0.378 | 0.271 | 0.562 | 0.581 | 0.174 | 0.148 | 0.182 | 0.517 | 0.583 | 0.214 | 0.312 | 0.222
NCI-H322M | 0.705 | 0.71 | 0.525 | 0.752 | 0.54 | 1.01 | – | 0.781 | 0.688 | 0.534 | 0.763 | 0.813 | 1.13 | 0.736 | 0.64 | 0.623 | 0.658 | 0.641 | 0.497 | 0.594
NCI-H358 | 0.594 | 0.525 | 0.525 | 0.441 | 0.163 | 0.738 | 0.52 | – | 0.558 | 0.277 | 0.725 | 0.63 | 0.513 | 0.54 | 0.135 | 0.188 | 0.171 | 0.17 | 0.171 | 0.136
NCI-H441 | 0.553 | 0.572 | – | 0.702 | 0.591 | 0.542 | 0.584 | – | 0.657 | 0.419 | 0.835 | 0.786 | – | 0.753 | 0.569 | 0.27 | 0.253 | – | 0.259 | 0.238
NCI-H460 | 0.427 | 0.429 | – | 0.315 | 0.236 | 1.17 | 0.849 | 0.674 | 0.0925 | 0.017 | 0.855 | 0.693 | 0.692 | 0.522 | 0.0489 | 0.0706 | 0.0577 | 0.0649 | 0.0564 | 0.0528
NCI-H520 | 0.383 | 0.327 | 0.326 | 0.298 | 0.271 | 0.948 | 0.898 | 0.827 | 1.06 | 0.69 | 0.646 | 0.875 | 0.682 | 0.698 | 0.518 | 0.752 | 0.738 | 0.716 | 0.65 | 0.478
NCI-H596 | 0.594 | 0.657 | 0.688 | 0.543 | 0.615 | 1.06 | 0.944 | 0.981 | 0.874 | 0.769 | 0.472 | 0.635 | 0.597 | 0.387 | 0.354 | 0.457 | 0.506 | 0.53 | 0.449 | 0.464
NCI-H647 | 0.627 | 0.591 | 0.617 | 0.422 | 0.303 | 1.1 | 1.05 | 1.09 | 0.674 | 0.378 | 0.501 | 0.655 | 0.637 | 0.496 | 0.339 | 0.187 | 0.198 | 0.177 | 0.137 | 0.123
